Assays:
[1] = target: T1, Cytoplasmic tyrosine-protein kinase BMX (Homo sapiens) (UniProt P51813); conditions: at 10 µM
T1 sequence (whole entry): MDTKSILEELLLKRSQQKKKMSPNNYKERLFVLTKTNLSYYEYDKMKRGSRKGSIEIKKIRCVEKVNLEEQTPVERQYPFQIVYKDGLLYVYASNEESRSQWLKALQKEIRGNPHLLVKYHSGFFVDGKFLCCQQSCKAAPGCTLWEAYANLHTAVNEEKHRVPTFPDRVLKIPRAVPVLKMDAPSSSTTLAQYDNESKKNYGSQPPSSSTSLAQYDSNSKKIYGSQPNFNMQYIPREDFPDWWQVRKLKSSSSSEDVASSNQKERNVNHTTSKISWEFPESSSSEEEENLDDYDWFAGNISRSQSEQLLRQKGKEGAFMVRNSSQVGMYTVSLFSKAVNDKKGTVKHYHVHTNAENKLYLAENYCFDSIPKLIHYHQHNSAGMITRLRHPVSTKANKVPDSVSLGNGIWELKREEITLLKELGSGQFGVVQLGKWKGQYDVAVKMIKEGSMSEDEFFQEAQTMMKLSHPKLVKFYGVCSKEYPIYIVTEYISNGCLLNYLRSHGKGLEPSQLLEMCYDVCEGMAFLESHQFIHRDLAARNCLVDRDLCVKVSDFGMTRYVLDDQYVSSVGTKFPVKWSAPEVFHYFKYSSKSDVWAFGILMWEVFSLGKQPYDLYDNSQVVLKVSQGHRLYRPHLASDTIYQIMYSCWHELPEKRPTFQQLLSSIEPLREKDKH

KCNQ1 = KCNQ1 (Homo sapiens, UniProt P51787); assay: Selectivity interaction (Panel of kinases, GPCRs, ion channels and transporters (enzymatic assay)) EUB0000266bCl KCNQ1
[2] = target: T2, Receptor-interacting serine/threonine-protein kinase 4 (Homo sapiens) (UniProt P57078); assay: Selectivity interaction (KinomeScan (DiscoverX)) EUB0000666a RIPK4; conditions: at 10 µM
T2 sequence (whole entry): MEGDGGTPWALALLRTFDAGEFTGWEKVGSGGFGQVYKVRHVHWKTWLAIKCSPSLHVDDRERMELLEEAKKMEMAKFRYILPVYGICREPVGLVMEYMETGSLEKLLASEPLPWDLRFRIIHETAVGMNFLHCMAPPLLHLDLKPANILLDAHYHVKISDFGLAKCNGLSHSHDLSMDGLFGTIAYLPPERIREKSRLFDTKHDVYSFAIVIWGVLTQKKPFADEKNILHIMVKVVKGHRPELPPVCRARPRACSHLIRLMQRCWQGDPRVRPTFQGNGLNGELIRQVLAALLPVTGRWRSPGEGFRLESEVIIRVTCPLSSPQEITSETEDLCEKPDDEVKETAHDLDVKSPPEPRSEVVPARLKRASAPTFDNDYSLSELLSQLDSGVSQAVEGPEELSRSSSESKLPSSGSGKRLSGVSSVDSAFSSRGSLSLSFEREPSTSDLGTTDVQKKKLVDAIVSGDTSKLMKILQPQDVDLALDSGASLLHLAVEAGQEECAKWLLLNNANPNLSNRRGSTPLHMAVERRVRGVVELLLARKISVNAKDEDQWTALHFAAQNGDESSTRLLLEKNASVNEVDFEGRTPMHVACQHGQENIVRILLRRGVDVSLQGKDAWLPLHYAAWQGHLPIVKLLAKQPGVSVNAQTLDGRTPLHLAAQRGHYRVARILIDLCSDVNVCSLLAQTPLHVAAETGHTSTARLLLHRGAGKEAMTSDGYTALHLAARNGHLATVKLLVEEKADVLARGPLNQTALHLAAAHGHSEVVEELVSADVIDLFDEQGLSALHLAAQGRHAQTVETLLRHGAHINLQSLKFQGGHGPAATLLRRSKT

[3] = target: Phosphatidylinositol 4,5-bisphosphate 3-kinase catalytic subunit gamma isoform (Homo sapiens) (UniProt P48736); assay: Selectivity interaction (ActivX KiNativ screen (kinase selectivity in THP-1 cell lysates)) EUB0000639a PIK3CG; assay type: subcellular; conditions: lysate
[4] = target: Sodium-dependent dopamine transporter (Homo sapiens, UniProt Q01959); assay: Selectivity interaction (Panel of non-epigenetic targets (kinases, GPCRs, ion channels, and transporters, Eurofins) ) EUB0000271b SLC6A3; conditions: at 1 µM
[5] = target: T3, Tyrosine-protein kinase Tec (Homo sapiens) (UniProt P42680); assay: Selectivity interaction (KinomeScan (DiscoverX)) EUB0000045b TEC
T3 sequence (whole entry): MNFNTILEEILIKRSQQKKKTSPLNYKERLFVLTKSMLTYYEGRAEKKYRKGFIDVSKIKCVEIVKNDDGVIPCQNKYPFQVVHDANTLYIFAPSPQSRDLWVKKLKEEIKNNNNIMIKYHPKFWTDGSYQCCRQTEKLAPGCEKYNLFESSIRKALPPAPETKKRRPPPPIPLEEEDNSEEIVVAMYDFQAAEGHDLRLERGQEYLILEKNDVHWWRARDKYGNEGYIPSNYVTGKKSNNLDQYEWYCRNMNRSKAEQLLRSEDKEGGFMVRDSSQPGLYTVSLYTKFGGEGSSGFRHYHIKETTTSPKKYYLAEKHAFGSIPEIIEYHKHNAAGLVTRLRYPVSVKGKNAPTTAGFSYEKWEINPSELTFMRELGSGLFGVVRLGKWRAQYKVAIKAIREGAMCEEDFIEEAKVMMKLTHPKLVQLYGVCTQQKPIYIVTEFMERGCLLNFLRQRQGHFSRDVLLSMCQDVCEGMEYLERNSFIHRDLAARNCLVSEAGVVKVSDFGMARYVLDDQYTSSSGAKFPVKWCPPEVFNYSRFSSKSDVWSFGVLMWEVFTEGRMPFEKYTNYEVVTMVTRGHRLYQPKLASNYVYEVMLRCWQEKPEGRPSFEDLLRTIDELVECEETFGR

[6] = target: Serine/threonine-protein kinase SIK1 (Homo sapiens) (UniProt P57059); assay: Selectivity interaction (KinomeScan (DiscoverX)) EUB0000618a SIK1; conditions: at 10 µM
Sequence of Serine/threonine-protein kinase SIK1 (Homo sapiens) (P57059 whole entry): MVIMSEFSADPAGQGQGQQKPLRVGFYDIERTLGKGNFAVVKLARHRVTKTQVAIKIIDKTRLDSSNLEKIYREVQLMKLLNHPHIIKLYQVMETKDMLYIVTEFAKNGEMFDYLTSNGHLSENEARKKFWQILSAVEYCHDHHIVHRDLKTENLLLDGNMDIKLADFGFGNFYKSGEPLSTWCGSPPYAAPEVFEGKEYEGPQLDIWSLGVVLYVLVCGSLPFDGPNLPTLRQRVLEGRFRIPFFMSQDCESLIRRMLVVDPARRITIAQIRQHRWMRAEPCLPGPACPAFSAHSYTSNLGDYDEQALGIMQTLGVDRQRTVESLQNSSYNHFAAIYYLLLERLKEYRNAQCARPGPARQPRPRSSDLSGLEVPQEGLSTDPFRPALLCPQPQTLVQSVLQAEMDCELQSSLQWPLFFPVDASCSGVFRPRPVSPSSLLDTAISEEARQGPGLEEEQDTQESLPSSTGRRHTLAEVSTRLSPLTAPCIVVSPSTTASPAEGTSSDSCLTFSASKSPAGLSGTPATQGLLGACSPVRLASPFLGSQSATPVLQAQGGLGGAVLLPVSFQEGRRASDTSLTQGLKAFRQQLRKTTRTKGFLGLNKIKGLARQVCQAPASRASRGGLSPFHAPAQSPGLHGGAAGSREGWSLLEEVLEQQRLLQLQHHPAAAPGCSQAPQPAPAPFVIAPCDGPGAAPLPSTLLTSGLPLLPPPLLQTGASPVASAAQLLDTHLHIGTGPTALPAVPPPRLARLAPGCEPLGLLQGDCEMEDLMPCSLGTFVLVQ

Sequence of Phosphatidylinositol 4,5-bisphosphate 3-kinase catalytic subunit gamma isoform (Homo sapiens) (P48736 whole entry, looked up, canonical isoform): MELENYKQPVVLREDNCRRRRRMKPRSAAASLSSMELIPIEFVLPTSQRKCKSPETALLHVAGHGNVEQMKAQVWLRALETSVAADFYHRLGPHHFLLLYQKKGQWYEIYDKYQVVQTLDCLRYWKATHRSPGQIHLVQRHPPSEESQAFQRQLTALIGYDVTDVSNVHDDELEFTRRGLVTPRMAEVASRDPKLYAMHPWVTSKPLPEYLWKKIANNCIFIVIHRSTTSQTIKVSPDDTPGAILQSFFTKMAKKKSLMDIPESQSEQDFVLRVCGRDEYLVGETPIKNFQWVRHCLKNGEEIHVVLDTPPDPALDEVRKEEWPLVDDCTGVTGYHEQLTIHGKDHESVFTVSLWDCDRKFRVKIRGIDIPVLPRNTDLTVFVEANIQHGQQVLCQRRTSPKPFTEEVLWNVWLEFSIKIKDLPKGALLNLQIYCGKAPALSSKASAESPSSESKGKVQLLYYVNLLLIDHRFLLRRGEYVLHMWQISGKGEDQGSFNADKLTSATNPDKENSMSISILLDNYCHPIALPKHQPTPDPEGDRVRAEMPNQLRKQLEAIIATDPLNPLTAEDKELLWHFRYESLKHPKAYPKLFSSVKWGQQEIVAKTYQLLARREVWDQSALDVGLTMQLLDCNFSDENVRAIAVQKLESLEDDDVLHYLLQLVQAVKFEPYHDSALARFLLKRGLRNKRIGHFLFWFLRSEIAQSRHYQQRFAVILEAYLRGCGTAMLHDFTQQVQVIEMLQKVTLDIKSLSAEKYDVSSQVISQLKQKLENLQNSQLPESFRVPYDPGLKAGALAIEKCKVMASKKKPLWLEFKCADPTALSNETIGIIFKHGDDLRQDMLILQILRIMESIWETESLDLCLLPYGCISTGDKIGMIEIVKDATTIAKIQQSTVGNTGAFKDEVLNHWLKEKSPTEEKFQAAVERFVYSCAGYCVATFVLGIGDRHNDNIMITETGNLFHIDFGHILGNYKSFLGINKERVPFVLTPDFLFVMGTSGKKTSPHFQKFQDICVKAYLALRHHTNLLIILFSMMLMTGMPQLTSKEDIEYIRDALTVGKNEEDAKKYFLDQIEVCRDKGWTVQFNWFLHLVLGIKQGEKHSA
Sequence of Sodium-dependent dopamine transporter (Q01959 whole entry): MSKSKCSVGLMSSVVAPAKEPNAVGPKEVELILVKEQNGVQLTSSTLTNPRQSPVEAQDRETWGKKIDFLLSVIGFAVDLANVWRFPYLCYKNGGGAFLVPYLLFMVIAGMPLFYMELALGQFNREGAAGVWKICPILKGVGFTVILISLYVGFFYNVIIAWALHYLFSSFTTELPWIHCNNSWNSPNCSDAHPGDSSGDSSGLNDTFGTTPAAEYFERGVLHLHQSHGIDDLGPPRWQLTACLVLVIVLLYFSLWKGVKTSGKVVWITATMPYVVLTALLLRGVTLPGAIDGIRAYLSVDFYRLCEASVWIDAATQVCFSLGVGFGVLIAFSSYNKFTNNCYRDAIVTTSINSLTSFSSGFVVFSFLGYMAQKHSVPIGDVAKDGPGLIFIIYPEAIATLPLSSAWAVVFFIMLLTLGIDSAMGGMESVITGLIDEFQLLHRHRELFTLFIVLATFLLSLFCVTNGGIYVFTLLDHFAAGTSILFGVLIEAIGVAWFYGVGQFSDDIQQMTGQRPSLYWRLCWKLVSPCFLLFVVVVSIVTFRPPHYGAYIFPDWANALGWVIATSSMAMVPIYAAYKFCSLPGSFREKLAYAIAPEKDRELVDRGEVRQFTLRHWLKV
Sequence of KCNQ1 (P51787 whole entry): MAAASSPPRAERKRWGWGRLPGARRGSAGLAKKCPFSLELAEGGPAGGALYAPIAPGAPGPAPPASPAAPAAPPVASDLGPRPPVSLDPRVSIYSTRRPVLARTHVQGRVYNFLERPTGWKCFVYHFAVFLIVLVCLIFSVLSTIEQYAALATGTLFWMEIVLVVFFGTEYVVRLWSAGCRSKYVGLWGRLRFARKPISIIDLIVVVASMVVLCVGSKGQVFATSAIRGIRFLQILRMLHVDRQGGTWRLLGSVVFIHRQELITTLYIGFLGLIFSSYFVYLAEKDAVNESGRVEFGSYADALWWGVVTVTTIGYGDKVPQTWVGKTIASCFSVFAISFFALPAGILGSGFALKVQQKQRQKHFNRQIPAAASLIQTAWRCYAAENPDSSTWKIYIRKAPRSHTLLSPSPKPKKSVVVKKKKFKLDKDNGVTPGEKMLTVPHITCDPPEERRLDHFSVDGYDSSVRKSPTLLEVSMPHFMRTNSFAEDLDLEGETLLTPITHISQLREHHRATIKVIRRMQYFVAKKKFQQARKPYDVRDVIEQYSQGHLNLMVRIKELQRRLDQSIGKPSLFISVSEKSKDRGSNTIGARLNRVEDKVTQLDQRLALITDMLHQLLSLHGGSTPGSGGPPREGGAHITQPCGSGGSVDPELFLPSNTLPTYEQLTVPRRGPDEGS

CCN(CC)CCCCNc1ncc2cc(-c3cc(OC)cc(OC)c3)c(NC(=O)NC(C)(C)C)nc2n1
% of control [1]: 100%

CCn1c(-c2nc3cc(C(=O)N4CCCC(N)C4)ccc3n2C)cc2ccccc21 (configuration not stated)
XC50 (KCNQ1): > 25.1 µM

O=C(NOC[C@H](O)CO)c1ccc(F)c(F)c1Nc1ccc(I)cc1F
% of control [2]: 100%

CC[C@@H]1[C@H](F)C(=O)N[C@@H]1COc1nccc2cc(C(N)=O)c(OC)cc12 [ZIMLOVISERTIB]
% of inhibition ([3]; at 0.01 µM): 6.3%
% of inhibition ([3]; at 0.04 µM): 12%
% of inhibition ([3]; at 0.2 µM): 7.4%
% of inhibition ([3]; at 1 µM): 13.3%
% of inhibition ([3]; at 5 µM): 2.6%

Cc1cc(C)cc([C@@H]2c3cc(C)ccc3NC(=O)CN2C(=O)c2ccc(Br)s2)c1
% of inhibition [4]: 6%

C=CC(=O)Nc1cc(-n2c(=O)ccc3cnc4ccc(-c5ccc(NS(C)(=O)=O)cc5)cc4c32)ccc1C
% of control ([5]; at 1 µM): 27%
% of control ([5]; at 10 µM): 4.2%

O[C@H]1CC[C@H](Nc2ncc3nc(Nc4c(F)cc(F)cc4F)n([C@H]4CCOC4)c3n2)CC1
% of control [6]: 100%

From ChEMBL document CHEMBL5465560, “Selectivity Literature for EUbOPEN Chemogenomic Library” (2024)
